Experimental data from patent US9956220B2, “Imidazo-pyridazine derivatives as casein kinase 1 δ/ϵ inhibitors” (Bristol-Myers Squibb Company, priority 2014, dated 2018).
pIC50: −log10 of the molar value.

Columns and labels:
CK1ϵ = CK1ϵ (Homo sapiens, UniProt P49674); test: CK1ϵ kinase assay (Caliper LABCHIP electrophoretic separation of fluoresceinated peptide substrate and product); assay type: biochemical; details: 200 pM CK1ϵ, 50 μM ATP, 1.5 μM peptide substrate, 22 hours at room temperature; read-out: CK1ε (IC50)
Description: (§1) CK1ϵ and CK1δ Kinase Assays
(§2) The kinase assay was performed in V-bottom 384-well plates.
(§3) The reaction was incubated at room temperature for 22 hours and terminated by adding 45 μl of 35 mM EDTA to each sample. The reaction mixture was analyzed on the Caliper LABCHIP®3000 (Caliper, Hopkinton, Mass.) by electrophoretic separation of the unphosphorylated substrate and phosphorylated product. […] Compounds were dissolved at 10 mM in dimethylsulfoxide (DMSO) and evaluated at eleven concentrations. IC50 values were derived by non-linear regression analysis.

CK1δ = CK1δ (Homo sapiens, UniProt P48730); test: CK1δ kinase assay (Caliper LABCHIP electrophoretic separation of fluoresceinated peptide substrate and product); assay type: biochemical; details: 200 pM CK1δ, 50 μM ATP, 1.5 μM peptide substrate, 22 hours at room temperature
Description: as §1, §2, §3

CK1ϵ, sequence (P49674 whole entry): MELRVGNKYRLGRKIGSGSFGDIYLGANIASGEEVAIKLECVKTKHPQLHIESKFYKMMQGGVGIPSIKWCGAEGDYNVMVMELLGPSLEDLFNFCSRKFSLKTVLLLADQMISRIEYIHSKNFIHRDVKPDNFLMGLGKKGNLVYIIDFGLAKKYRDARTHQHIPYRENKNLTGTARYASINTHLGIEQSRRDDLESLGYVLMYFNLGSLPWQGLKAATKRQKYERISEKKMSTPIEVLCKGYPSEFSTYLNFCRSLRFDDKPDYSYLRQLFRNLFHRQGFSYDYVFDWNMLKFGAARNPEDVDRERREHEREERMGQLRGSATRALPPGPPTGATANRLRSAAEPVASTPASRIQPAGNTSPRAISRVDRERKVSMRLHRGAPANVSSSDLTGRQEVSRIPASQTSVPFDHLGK
CK1δ, sequence (P48730 whole entry): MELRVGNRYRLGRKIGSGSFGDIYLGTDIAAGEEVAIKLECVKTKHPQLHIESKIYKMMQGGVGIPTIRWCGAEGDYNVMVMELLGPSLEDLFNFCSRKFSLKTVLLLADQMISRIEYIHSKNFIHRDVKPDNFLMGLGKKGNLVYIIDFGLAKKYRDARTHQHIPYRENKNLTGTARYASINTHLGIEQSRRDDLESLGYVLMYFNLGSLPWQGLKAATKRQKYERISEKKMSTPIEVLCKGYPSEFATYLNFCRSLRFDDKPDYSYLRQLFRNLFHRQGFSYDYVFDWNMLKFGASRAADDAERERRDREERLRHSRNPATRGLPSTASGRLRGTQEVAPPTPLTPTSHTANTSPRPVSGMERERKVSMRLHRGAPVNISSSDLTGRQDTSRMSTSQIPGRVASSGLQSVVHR

| pIC50 (CK1ϵ) | pIC50 (CK1δ) | SMILES |
| --- | --- | --- |
| 8.57 | 9.70 | Nc1cc(C(=O)Nc2cn3nc(-c4c(-c5ccc(F)cc5)nn5c4COCC5)ccc3n2)ccn1 [Example 58, 2-Amino-N-(6-(2-(4-fluorophenyl)-6,7-dihydro-4H-pyrazolo[5,1-c][1,4]oxazin-3-yl)imidazo[1,2-b]pyridazin-2-yl) isonicotinamide] |
| 8.89 | 9.40 | O=C(Nc1cn2nc(-c3c(-c4ccc(F)cc4)nn4c3CCCC4)ccc2n1)c1ccnc(F)c1 [Example 62, 2-Fluoro-N-(6-(2-(4-fluorophenyl)-4,5,6,7-tetrahydropyrazolo[1,5-a]pyridin-3-yl)imidazo[1,2-b]pyridazin-2-yl)isonicotinamide] |
| 8.33 | 9.40 | O=C(Nc1cn2nc(-c3c(-c4ccc(F)cc4)nn4c3CCC4)ccc2n1)c1ccnc(F)c1 [Example 65, 2-Fluoro-N-(6-(2-(4-fluorophenyl)-5,6-dihydro-4H-pyrrolo[1,2-b]pyrazol-3-yl)imidazo[1,2-b]pyridazin-2-yl)isonicotinamide] |
| 7.55 | 8.85 | O=C(Nc1cn2nc(-c3c(-c4ccc(F)cc4)noc3C3CCOCC3)ccc2n1)c1ccnc(F)c1 [Example 69, 2-Fluoro-N-(6-(3-(4-fluorophenyl)-5-(tetrahydro-2H-pyran-4-yl)isoxazol-4-yl)imidazo[1,2-b]pyridazin-2-yl)isonicotinamide] |
| 7.56 | 8.42 | O=C(Nc1cn2nc(-c3c(-c4ccc(F)cc4)noc3C3CCOCC3)ccc2n1)c1ccnc(N2CCOCC2)c1 [Example 70, N-(6-(3-(4-Fluorophenyl)-5-(tetrahydro-2H-pyran-4-yl)isoxazol-4-yl)imidazo[1,2-b]pyridazin-2-yl)-2-morpholinoisonicotinamide] |
| 7.54 | 8.60 | O=C(Nc1cn2nc(-c3c(-c4ccc(F)cc4)noc3C3CCOCC3)ccc2n1)c1ccnc(-c2cccnc2)c1 [Example 71, N-(6-(3-(4-Fluorophenyl)-5-(tetrahydro-2H-pyran-4-yl)isoxazol-4-yl)imidazo[1,2-b]pyridazin-2-yl)-[2,3′-bipyridine]-4-carboxamide] |

Second part, the molecule before the results:

| SMILES | pIC50 (CK1ϵ) | pIC50 (CK1δ) |
| --- | --- | --- |
| O=C(Nc1cn2nc(-c3c(-c4ccc(F)cc4)nn4c3COCC4)ccc2n1)c1ccncc1 [Example 54, N-(6-(2-(4-Fluorophenyl)-6,7-dihydro-4H-pyrazolo[5,1-c][1,4]oxazin-3-yl)imidazo[1,2-b]pyridazin-2-yl)isonicotinamide] | 8.59 | 9.52 |
| O=C(Nc1cn2nc(-c3c(-c4ccc(F)cc4)nn4c3COCC4)ccc2n1)c1ccnc(N2CCOCC2)c1 [Example 55, N-(6-(2-(4-Fluorophenyl)-6,7-dihydro-4H-pyrazolo[5,1-c][1,4]oxazin-3-yl)imidazo[1,2-b]pyridazin-2-yl)-2-morpholinoisonicotinamide] | 8.62 | 9.52 |
| O=C(Nc1cn2nc(-c3c(-c4ccc(F)cc4)nn4c3COCC4)ccc2n1)c1cc(F)nc(F)c1 [Example 56, 2,6-Difluoro-N-(6-(2-(4-fluorophenyl)-6,7-dihydro-4H-pyrazolo[5,1-c][1,4]oxazin-3-yl)imidazo[1,2-b]pyridazin-2-yl) isonicotinamide] | 8.40 | 9.52 |
| O=C(Nc1cn2nc(-c3c(-c4ccc(F)cc4)nn4c3COCC4)ccc2n1)c1ccnc(-c2cccnc2)c1 [Example 57, N-(6-(2-(4-Fluorophenyl)-6,7-dihydro-4H-pyrazolo[5,1-c][1,4]oxazin-3-yl)imidazo[1,2-b]pyridazin-2-yl)-[2,3′-bipyridine]-4-carboxamide] | 8.77 | 9.70 |
| O=C(Nc1cn2nc(-c3c(-c4ccc(F)cc4)nn4ccccc34)ccc2n1)c1cc(F)nc(F)c1 [Example 61, 2,6-Difluoro-N-(6-(2-(4-fluorophenyl)pyrazolo[1,5-a]pyridin-3-yl)imidazo[1,2-b]pyridazin-2-yl)isonicotinamide] | 6.86 | 7.71 |
| O=C(Nc1cn2nc(-c3c(-c4ccc(F)cc4)nn4c3CCCC4)ccc2n1)c1ccncc1 [Example 63, N-(6-(2-(4-Fluorophenyl)-4,5,6,7-tetrahydropyrazolo[1,5-a]pyridin-3-yl)imidazo[1,2-b]pyridazin-2-yl) isonicotinamide] | 8.92 | 9.52 |
| O=C(Nc1cn2nc(-c3c(-c4ccc(F)cc4)nn4c3CCCC4)ccc2n1)c1cc(F)nc(F)c1 [Example 64, 2,6-Difluoro-N-(6-(2-(4-fluorophenyl)-4,5,6,7-tetrahydropyrazolo[1,5-a]pyridin-3-yl)imidazo[1,2-b]pyridazin-2-yl) isonicotinamide] | 8.41 | 9.30 |
| O=C(Nc1cn2nc(-c3c(-c4ccc(F)cc4)nn4c3CCC4)ccc2n1)c1cc(F)nc(F)c1 [Example 66, 2,6-Difluoro-N-(6-(2-(4-fluorophenyl)-5,6-dihydro-4H-pyrrolo[1,2-b]pyrazol-3-yl)imidazo[1,2-b]pyridazin-2-yl)isonicotinamide] | 8.28 | 9.15 |
| O=C(Nc1cn2nc(-c3c(-c4ccc(F)cc4)nn4c3CCC4)ccc2n1)c1ccncc1 [Example 67, N-(6-(2-(4-Fluorophenyl)-5,6-dihydro-4H-pyrrolo[1,2-b]pyrazol-3-yl)imidazo[1,2-b]pyridazin-2-yl) isonicotinamide] | 8.44 | 9.40 |
| O=C(Nc1cn2nc(-c3c(-c4ccc(F)cc4)nn4c3CCC4)ccc2n1)c1ccccc1 [Example 68, N-(6-(2-(4-Fluorophenyl)-5,6-dihydro-4H-pyrrolo[1,2-b]pyrazol-3-yl)imidazo[1,2-b]pyridazin-2-yl)benzamide] | 8.44 | 9.52 |
